Data: PMC12677699, “Utilizing Proteolytic‐Resistant Nano‐Short Peptide Based on Naphthyl Tail‐Anchored to Combat Bacterial Infections” (Advanced Science, 2025)

Tests used:
[1] = test system: clinically isolated strains; assay: MIC against clinically isolated strains (panel); type: cell-based; settings: all four clinical strains of Figure 4G
Description: The MIC values of the nano‐short peptides were determined according to standard protocols.^[ [63] ^] Bacterial strains were revived from cryopreservation and cultured in Mueller–Hinton broth (MHB) to logarithmic growth phase, then diluted to a final density of 0.5–1 × 10⁶ CFU mL^−1. Serial dilutions of the nano‐short peptides were prepared in 0.2% bovine serum albumin (BSA) using a 96‐well plate format. Equal volumes of peptide solutions and bacterial suspensions were combined and incubated at 37 °C for 20–22 h. Bacterial growth was assessed by measuring absorbance at 492 nm, with MHB alone (negative control) and untreated bacterial suspension (positive control) included for reference.

E. coli ATCC 25922 [2] = assay: Time-kill kinetics; type: cell-based, Escherichia coli; settings: 1 × MIC, PBS pH 7.4; n = 3
Description: (§1) Samples were collected at pre‐determined time points post‐exposure, serially diluted, and plated on Mueller‐Hinton agar (MHA) for viable colony counting after 18–24 h incubation at 37 °C. Untreated bacterial suspensions served as controls.

S. aureus ATCC 29213 [3] = assay: Time-kill kinetics; type: cell-based, Staphylococcus aureus; settings: PBS pH 7.4, n = 3
Description: as §1

E. coli ATCC 25922 [4] = assay: Drug resistance assay, 30 serial passages; type: cell-based, Escherichia coli; settings: E. coli ATCC 25922, 30 successive passages at sub-MIC concentrations
Description: The potential resistance development of nano‐short peptides was evaluated through 30 serial passages of E. coli ATCC 25922 and S. aureus ATCC 29213 in sub‐MIC conditions,^[ [38] ^] using gentamicin as control.

[5] = Dynamic light scattering and zeta potential; type: physicochemical; settings: 16 × 10^−6 M in deionized water; n = 3
Description: N4 was diluted to 16 × 10^−6 M using deionized water and added to disposable plastic cuvettes, and the kinetic diameters was determined using a Zetasizer Nano Z90 (Malvern Instruments, Worcestershire, U.K.).^[ [29] ^] N4 was diluted to 16 × 10^−6 M using deionized water and added to the electrode cups, and the zeta potential was determined using a Zetasizer Nano Z90 (Malvern Instruments, Worcestershire, UK).^[ [29] ^]

ThT fluorescence assay = type: physicochemical; settings: 16 × 10^−6 M N4, ThT 40 × 10^−6 M, deionized water, 20 min, 37 °C
Description: The fluorescent dye was used for fluorescence measurements and imaging of N4. ^[ [48] ^] […] An equal volume of ThT solution was added to each well (final concentration: 40 × 10^−6 M), with ThT in deionized water serving as the control. After 20 min incubation at 37 °C, fluorescence intensity was measured using a microplate reader (excitation λ = 450 nm, emission λ = 480 nm). N4 was stained with 40 × 10^−6 M ThT for 30 min and observed by imaging using a fluorescence microscope.

E. coli ATCC 25922 [6] = assay: Cytoplasmic membrane permeability, ONPG hydrolysis; type: cell-based, Escherichia coli; settings: within 1800 s
Description: The ONPG hydrolysis assay was employed to determine the effects of nano‐short peptides on permeability of E. coli ATCC 25922 cytoplasmic membranes. The detailed experimental procedures followed the previously published methodology.^[ [30] ^]

E. coli ATCC 25922 [7] = assay: Intracellular ATP determination; type: cell-based, Escherichia coli; settings: 16 × 10^−6 M, E. coli ATCC 25922, 1 h, 37 °C; n = 3
Description: The intracellular ATP levels of E. coli ATCC 25922 and S. aureus ATCC 29213 after nano‐short peptides treatment were detected using an Enhanced ATP Assay Kit.^[ [59] ^] Logarithmic growth stage E. coli ATCC 25922 and S. aureus ATCC 29213 bacterial solutions were diluted to OD600 = 0.4 in MHB liquid medium. Then, the bacterial dilutions were co‐incubated with different concentrations of nano‐short peptides at 37 °C for 1 h. After incubation, the bacterial dilutions were centrifuged (12 000 rpm, 5 min, 4 °C) to pellet the cells. The resulting bacterial pellets were processed according to the steps in the kit. Finally, the chemiluminescence was detected by a microplate reader.

S. aureus ATCC 29213 [8] = assay: Live/dead staining, PI and SYTO 9; type: cell-based, Staphylococcus aureus
Description: Finally, a fluorescence microscope (EVOS FL Auto, Massachusetts, USA) was used to observe the fluorescence images of the bacteria under different background colors and representative pictures were taken.

S. aureus ATCC 29213 [9] = assay: Flow cytometry, PI; type: cell-based, Staphylococcus aureus; settings: 16 × 10^−6 M N4, 1 h, control 1.23%
Description: The bacterial samples were incubated with N4 for 1 h and then incubated with the PI dye (at a final concentration of 10 µg mL^−1) for a further 15 min. Finally, bacteria containing PI dye were detected by FACScan flow cytometer at 488 nm excitation wavelength, bacterial solutions (containing PI dye) without N4 treatment were used as controls.

ICR female mice = assay: In vivo toxicity of N4; parameters: species or system mouse
Description: Animal experiments were conducted in accordance with the Guide for the Care and Use of Laboratory Animals at Northeast Agricultural University (NEAU‐[2011]‐9). The experimental subjects comprised female ICR mice, aged 6 to 8 weeks and weighing 19 ± 1.1 g, sourced from Liaoning Changsheng Biotechnology Co. Thirty‐two mice were randomly divided into four groups after a 3‐day pre‐feeding period, followed by intraperitoneal injections of N4 at different doses (5, 10, and 20 mg kg^−1) to assess its toxicity, with saline treatment serving as the control group. Following injection, behavioral alterations were observed over a brief duration (0.5, 1, 4, and 8 h), and then body weight changes were monitored for 3 days. On the third day, the mice were euthanized via ether inhalation anesthesia, and blood samples were collected from the orbital vein for biochemical analysis, which was used to determine the levels of ALT, ALP, BUN, CREA, and TBIL. Subsequently, the liver, spleen, and kidneys were taken to determine organ coefficients. The relative organ weights were calculated using the formula: relative organ weight (%) = (organ weight/mouse body weight) × 100%. These organs were then fixed in 4% paraformaldehyde, following established protocols, for subsequent histological examination.^[ [70] ^]

in vitro = settings: female, ICR, mouse, serum
Description: N4 was incubated with serum isolated from mice for different durations (0, 1, 2, 4, 8, 12 h), followed by RP‐HPLC analyses to determine the retention rate.^[ [48] ^]

[10] = 5, 10, 20 mg kg^−1 intraperitoneal, day 3, p > 0.05, n = 8

N=C(N)NCCC[C@H](NC(=O)[C@@H](CCCNC(=N)N)NC(=O)[C@H](Cc1cccc2ccccc12)NC(=O)[C@H](Cc1cccc2ccccc12)NC(=O)[C@H](Cc1cccc2ccccc12)NC(=O)[C@@H](N)Cc1cccc2ccccc12)C(=O)N[C@@H](CCCNC(=N)N)C(=O)N1CCC[C@H]1C(=O)O (stereo in doubt) [Peptide N4]
MIC values against clinically isolated strains [1]: ≤ 16 µM
time to eliminate all E. coli ATCC 25922 cells (E. coli ATCC 25922 [2]): ≤ 1500 s
time to eliminate all S. aureus ATCC 29213 cells (S. aureus ATCC 29213 [3]; 1 × MIC): ≤ 3000 s
time to eliminate all S. aureus ATCC 29213 cells (S. aureus ATCC 29213 [3]; 4 × MIC): ≤ 1200 s
increase in MIC values after serial passage (E. coli ATCC 25922 [4]): remained largely unchanged
zeta potential [5]: 6.99 mV
ThT fluorescence intensity (ThT fluorescence assay): significant increase
increase in absorbance at 420 nm (ONPG hydrolysis) (E. coli ATCC 25922 [6]; 8 μM): approximately 2 fold
increase in absorbance at 420 nm (ONPG hydrolysis) (E. coli ATCC 25922 [6]; 16 μM): ~5 fold
ATP levels decreased to (E. coli ATCC 25922 [7]): 66.07%
red (PI)/green (SYTO 9) fluorescence overlap rate (S. aureus ATCC 29213 [8]; 16 × 10^−6 M N4, S. aureus ATCC 29213, ImageJ): 90.74%
red (PI)/green (SYTO 9) fluorescence overlap rate (S. aureus ATCC 29213 [8]; 256 × 10^−6 M N4, S. aureus ATCC 29213, ImageJ): 98.65%
PI-positive proportion (S. aureus ATCC 29213 [9]): 36.7%
clinical signs (ICR female mice; 20 mg kg^−1 intraperitoneal, ICR female mice, only two mice, within 1 h, n = 8): mild and transient symptoms
body weight vs control group (ICR female mice; 5, 10, 20 mg kg^−1 intraperitoneal, 3 days, p > 0.05, n = 8): no significant differences
histopathology of liver, spleen, kidney (H&E) (ICR female mice; 5, 10, 20 mg kg^−1 intraperitoneal, day 3): did not inflict histopathological damage
levels of ALT, ALP, BUN, CREA and TBIL vs control group (ICR female mice; [10]): no significant differences
relative weights of the liver, spleen, and kidney (ICR female mice; [10]): remained comparable
remaining at 4 h (in vitro): > 50%
remaining at 12 h (in vitro): 8.1%
